System: IMQ induced psoriasis
Experimental: Test Item Details • 1. Dexamethasone Cat. or Batch no.: BCBM4557V (sigma) • Vehicle for dexamethasone (Veh.1): acetone:ethanol (1:1) • Dose: 0.1 mg/ear & 0.25 mg in back skin • Dose volume: 20 μL/ear & 50 μL on back skin • 2. Crisaborole: PZ0037 (Sigma) • Vehicle (Veh.1): acetone:ethanol (1:1) • Dose: 0.1 mg/ear & 0.25 mg in back skin • Dose volume: 20 μL/ear, 50 μL on back skin • 3. Compound of Formula (I) • Vehicle (Veh.1): acetone:ethanol (1:1) • Dose: 0.1 mg/ear & 0.25 mg in back skin • Dose volume: 20 μL/ear, 50 μL on back skin Dexamethasone and Test Item Preparation and Application: • Strength=5 mg/ml
Application=100 μg/20 pit per each ear+250 μg/50 μL on the back G2 to G4 receive Dexamethasone, Crisaborole or test item: Daily topical treatment (D0-D6): 0.1 mg in 20 μl per ear x both the ears+0.25 mg in 50 μl (on the back) 6-8 hrs after IMQ application.
Disease Induction: Application of 5% IMQ cream 40 mg (back) and 5 mg (per ear—Inner surface) daily from day 0-6.
Treatment: 0.5% Dexamethasone solution: 0.25 mg (back) and 0.1 mg (per ear) 8 hrs post IMQ. • Day −2—Depilation on back region • Day 0—Observations (Body weight; ear thickness using digital microcaliper) • Day 2—Observations (Body weight; ear thickness using digital microcaliper) • Day 4—Observations (Body weight; ear thickness using digital microcaliper) • Day 6—Observations (Body weight; ear thickness using digital microcaliper); Blood collection (PK) and Termination {2 hrs after last dose) • Ear collection: PK, Cytokine, MPO, Thickness • Back skin collection, scoring and thickness measurement • Histopathology (optional)
The dorsal posterior area (2 cm×2 cm) of animals is depilated using a hair trimmer. 5% Imiquimod cream: 50 mg/animal (40 mg on the shaved back+5 mg each on the inner part of right and left ear) QD is applied on days 0 to 5 (Groups 1-4).
The body weight is recorded individually for all animals at receipt, day of randomization, prior to treatment, and once in two days thereafter. The animals are observed for mortality at regular intervals.
2 hrs post compound treatment on day 6, all the animals are euthanized, and ear tissues are collected. The right ear is flash frozen in liquid nitrogen and stored at −80° C. until homogenization for MPO and cytokine estimation.
The half of the left ear is used for drug concentration measurement. The other half of the left ear tissue is used for histopathology. The back skin is collected for visual assessment (scoring) and histopathology.
MPO analysis: Snap frozen ear tissue samples are homogenized in 1× assay buffer provided in the kit. The homogenates are centrifuged at 8000 g for 10 minutes in a refrigerated centrifuge. The supernatants are discarded, and the pellet is resuspended in solubilisation buffer (1× assay buffer containing 0.5% HTABr). The samples are homogenized and subjected to three rounds of freeze thaw followed by brief sonication for 10s. The samples are centrifuged at 12,000 g for 10 minutes in a refrigerated centrifuge and the resulting supernatants are analysed for MPO levels based on a fluorometric detection kit. The Kit utilizes a non-fluorescent detection reagent, which is oxidized in the presence of hydrogen peroxide and MPO to produce its fluorescent analogue. (Enzo Life Sciences; ADI-907-029).
Histopathology: At study termination, posterior dorsal skin and ear skin samples are collected. Skin samples are processed using routine histopathological methods and 4-5 μm paraffin sections are prepared. Tissue sections (3 serial sections/animal) are stained with Hematoxylin and eosin (H&E) to evaluate acanthosis, hyper/parakeratosis and inflammatory cellular infiltration in dermis. Severity of lesions are assessed semi quantitatively on a scale of 0-4 by two independent pathologists (0—normal, 1—mild degree, 2—moderate degree, 3—severe degree and 4—extensive or multiple locations) for each parameter in a blinded manner.

SMILES	MPO activity in ear tissue homogenates (day 6, topical 0.5%, vs IMQ control)	Back skin thickness (day 6 at termination, topical 0.5%, vs IMQ control)	Cumulative clinical scores (erythema, skin thickness, scales) (topical 0.5%, back skin, maximum score 12, vs IMQ control)	Ear thickness (topical 0.5%, daily, vs IMQ control)	Overall cumulative HP scores of ear skin (topical 0.5%, maximum score 16, vs IMQ control)	Spleen weight or normalized spleen weight (topical 0.5%, vs IMQ control)	Cytokine levels in ear tissue homogenates (topical treatment, vs IMQ control)	Body weight / body weight loss (mouse, in vivo)
N#Cc1ccc(Oc2ccc3c(c2)COB3O)cc1 [Crisaborole, reference compound]	do not show significant inhibition	do not show significant reduction	significant reduction in the cumulative clinical scores on day 6	significant reduction in ear thickness on day 6	significant reduction	do not show significant reduction	significant reduction in few of the proinflammatory cytokines	
C[C@@H]1C[C@H]2[C@@H]3CCC4=CC(=O)C=C[C@]4(C)[C@@]3(F)[C@@H](O)C[C@]2(C)[C@@]1(O)C(=O)CO [Dexamethasone, reference compound]								significant body weight loss
